# Experimental data published in ChEMBL document CHEMBL3132828, “In vitro anticancer activity and SAR studies of triazolyl aminoacyl(peptidyl) penicillins” (Medchemcomm, 2014).
# pIC50: −log10 of the molar value.
# Experiments:
# HeLa [1] = assay: Cytotoxicity against human HeLa cells assessed as hexosaminidase level after 72 hrs by colorimetric analysis; type: functional, cell-based
# [2] = Selectivity ratio of IC50 for mouse NMuMG cells to IC50 for human HeLa cells; type: ADME, cell-based; conditions: NMuMG cells and HeLa cells, read-out: Ratio IC50
# [3] = Selectivity ratio of IC50 for mouse NMuMG cells to IC50 for mouse B16F0 cells; type: ADME, cell-based; conditions: NMuMG cells and B16F0 cells, read-out: Ratio IC50
# [4] = Cytotoxicity against mouse B16F0 cells assessed as hexosaminidase level after 72 hrs by colorimetric analysis; type: functional, cell-based; conditions: B16F0, 72 h
# [5] = Cytotoxicity against mouse NMuMG cells assessed as hexosaminidase level after 72 hrs by colorimetric analysis; type: cell-based
# HeLa [6] = assay: Cytotoxicity against human HeLa cells assessed as growth inhibition at 20 uM after 72 hrs by colorimetric analysis relative to control; type: functional; conditions: read-out: GI
Structure (SMILES),pIC50 (HeLa [1]),selectivity ratio [2],selectivity ratio [3],pIC50 [4],pIC50 [5],inhibition of growth at 20 µM (HeLa [6]) [%]
COC(=O)[C@H](Cc1ccccc1)NC(=O)[C@H](CC(C)C)NC(=O)c1cn(C[C@@H]2N3C(=O)C[C@H]3SC2(C)C)nn1,4.89,27,35.5,5.00,3.45,
COC(=O)[C@H](Cc1ccccc1)NC(=O)[C@@H](NC(=O)c1cn(C[C@@H]2N3C(=O)C(Br)(Br)[C@H]3SC2(C)C)nn1)C(C)C,4.80,10.6,19,5.05,3.77,
COC(=O)[C@H](CC(C)C)NC(=O)[C@H](CC(C)C)NC(=O)c1cn(C[C@@H]2N3C(=O)C(Br)(Br)[C@H]3SC2(C)C)nn1,5.05,10,22,5.40,4.06,
COC(=O)[C@H](Cc1ccccc1)NC(=O)[C@@H]1CCCN1C(=O)c1cn(C[C@@H]2N3C(=O)C(Br)(Br)[C@H]3SC2(C)C)nn1,4.77,3,5,4.96,4.26,
COC(=O)[C@H](Cc1ccccc1)NC(=O)c1cn(C[C@@H]2N3C(=O)C(Br)(Br)[C@H]3SC2(C)C)nn1,4.85,9,12.5,5.00,3.90,
COC(=O)[C@H](Cc1ccccc1)NC(=O)[C@H](CC(C)C)NC(=O)c1cn(C[C@@H]2N3C(=O)C(Br)(Br)[C@H]3S(=O)(=O)C2(C)C)nn1,5.70,3.5,3.5,5.70,5.15,
COC(=O)[C@H](Cc1ccccc1)NC(=O)[C@H](CC(C)C)NC(=O)c1cn(C[C@@H]2N3C(=O)C(Br)(Br)[C@H]3SC2(C)C)nn1,5.52,34,34,5.52,3.99,
CC[C@H](C)[C@H](NC(=O)c1cn(C[C@@H]2N3C(=O)C(Br)(Br)[C@H]3SC2(C)C)nn1)C(=O)N[C@@H](Cc1ccccc1)C(=O)OC,4.82,5.5,9,5.05,4.08,
COC(=O)[C@H](Cc1ccccc1)NC(=O)[C@H](CCSC)NC(=O)c1cn(C[C@@H]2N3C(=O)C(Br)(Br)[C@H]3SC2(C)C)nn1,5.00,27.5,30.5,5.05,3.56,
CC[C@H](C)[C@H](NC(=O)c1cn(C[C@@H]2N3C(=O)C(Br)(Br)[C@H]3SC2(C)C)nn1)C(=O)N[C@@H](Cc1ccc(O)cc1)C(=O)OC,,,5,4.70,4.02,< 50
COC(=O)[C@H](Cc1ccc(O)cc1)NC(=O)[C@H](CC(C)C)NC(=O)c1cn(C[C@@H]2N3C(=O)C(Br)(Br)[C@H]3SC2(C)C)nn1,,,> 7,4.66,< 3.80,< 50
